Test results reported in patent publication US6420600B1, “Phenylalaninol derivatives” (Hoffman-La Roche Inc., priority 1999, dated 2002).

What was measured:
[1] = tested on: Adult male cynomolgus monkeys; test: Acute airway inflammation in the atopic primate (A. suum antigen challenge, bronchoalveolar lavage cell counts); format: in vivo, Macaca fascicularis; details: p.o., 2 hours prior to A. suum antigen challenge; lavage at 24 hour after challenge; relative to vehicle treated control animals
Procedure: Acute airway inflammation in the atopic primate.
Airway inflammation in the monkey was determined using a modification of the protocol described by Turner et al. (Turner et al., 1994). Adult male cynomolgus monkeys (Macaca fascicularis, Hazelton Labs, Denver, Pa.) weighing between 3.6-5.8 kg were used in these studies.
On the day of each experiment the animals were anesthetized with ketamine hydrochloride, 12 mg/kg, and xylazine, 0.5 mg/kg, intubated with a cuffed endotracheal tube (3 mm, Mallinckrodt Medical, St. Louis, Mo.), then seated in an upright position in a specially designed Plexiglass chair (Plas-Labs, Lansing, Mich.). The endotracheal tube was connected to a heated Fleisch pneumotachograph. Airflow was measured via a Validyn differential pressure transducer (DP 45-24) that was attached to the pneumotachograph. Transpulmonary pressure was measured via a second Validyne transducer (DP 45-24) connected between a sidearm of the tracheal cannula and a 18-gauge intrapleural needle inserted in the intercostal space located below the left nipple. […]
Airway inflammation was induced by exposing the animal to an aerosol of A. Suum extract for 60 sec. […] Airway inflammation was assessed by inserting a pediatric bronchoscope into the airway lumen down to about the 4 or 5th generation bronchi and gently lavaging with 3 ×2 ml aliquots of sterile Hanks Balanced Salt Solution. […]

Cc1cccc(Cl)c1C(=O)N[C@H](CO)Cc1ccc(NC(=O)c2c(Cl)cccc2Cl)cc1 [Example 1, 4-[[(2,6-dichlorophenyl)carbonyl]amino]-N-[(2-chloro-6-methylphenyl)carbonyl]-L-phenylalaninol]
melting point: 198 to 200 °C
number of inflammatory cells present in the lavage fluid [1]: significant decrease
percent of inflammatory cells present in the lavage fluid [1]: significant decrease
